Like-named read-outs stand apart in the source and are kept apart here.
Legend:
[1] = tested on: MOLT-4; assay: Cell viability (CellTiter Glo), compressed perturbation pools with informed pool design, MAX-based deconvolution, MOLT-4;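 note: higher DRS means a larger drug effect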
Experimental: (§1) Total cell viability was measured for each sample using an ATP-based luminescence assay (i.e., CellTiter Glo). Each cancer drug was then screened at multiple concentrations ranging from one nM to ten μM in order to generate a dose-response curve and calculate a DRS for each cancer cell line.
(§2) Each cancer drug was cultured with target cells individually. At the end of the screen, samples were either analyzed individually or compressed into pools for analysis. The library was compressed alphabetically into ten cohorts, each of which contained seven cancer drugs present in three out of the seven pools, as shown in Table VII. Said another way, the screening platform 210 generated a “7 pick 3” compressed library by assigning the cancer drugs among different pools. […] The library was also compressed into ten cohorts with pools designed based on information known about each cancer drug, as shown in Table VIII. After cell viability measurement and DRS calculation, the DRS of each cancer drug in the samples generated based on the pools were deconvoluted and compared to the DRS for each cancer drug measured individually.
(§3) In parallel to the exemplary sample compression screen covered in Table VII, perturbations were compressed into pools and then screened. The pools were designed using drug class as a feature with two compression rules (or simply “rules”). The first rule required that drugs from the same class be separated into different cohorts (i.e., mutually exclusive groups of pools). […] A benefit of compressing perturbations is the ability to measure additive, antagonistic, and synergistic effects between drugs in the same pool. However, these effects can negatively impact deconvolution of individual drug effects. Therefore, combinations of drugs for which evidence of clinical toxicity exists can be assigned to different pools in accordance with an informed pooling operation. As new preclinical or clinical evidence of toxic combinations becomes available, the rules implemented by the screening platform 210—and more specifically, its algorithm for compressing members of a library—can be updated accordingly.
(§4) In MAX-based deconvolution, an assumption of neutrality between the compressed perturbations is made. In other words, the perturbation with the largest effect is assumed to be masking the effects, if any, of the other perturbations in the pool. For SUM- and MAX-based deconvolution, qualitative deconvolution is first performed to rank the perturbations in each pool based on size of expected effect. Qualitative deconvolution, as described above, ranks the perturbations in a pool from largest effect size to smallest effect size. The ranking is based on the overlap of each perturbation's unique subset of pools with the highest and lowest measured pools. The perturbation with the largest effect is expected to be present in the pools with the highest measured signal or corresponding metric (e.g., DRS), while the perturbation with the smallest effect is expected to be present in the pools with the lowest measured signal or corresponding metric (e.g., DRS).
(§5) For MAX-based deconvolution, the highest ranked perturbation in the rank order is first assigned an effect size based on the pool with the lowest measured signal or corresponding metric (e.g., DRS) that it is present in. Said another way, the screening platform 210 can identify the highest ranked perturbation in the rank order and then assign an effect size based on the measured signal or corresponding metric (e.g., DRS) of the “weakest” pool in which the highest ranked perturbation is included. The screening platform 210 can repeat this step for the next highest ranked perturbation, and so on until the measurements for each pool have been assigned to one of the perturbations. The effects for the remaining perturbations can be assigned a value of zero, since it is assumed that their effect is masked by the perturbation with the largest effect in each pool.

[2] = tested on: REH; assay: Cell viability (CellTiter Glo), library of cancer drugs, individual or sample compression with randomized (alphabetical) pools, REH; type: cell-based
Experimental: as §1, §2
(§6) In SUM-based deconvolution, an assumption of additivity is used to quantify the individual effects of each perturbation on each target. Additivity implies that each perturbation effect on each target is positively contributing to the overall effect measured for that pool. This is an accurate assumption for certain experiments, such as when targets or samples are compressed. When targets are pooled—or when samples containing different targets are pooled—the effect of each perturbation on each individual target is diluted. In other words, each perturbation has an isolated effect on a target in culture, and the sum total of the isolated effects are measured when pooled. Therefore, SUM-based deconvolution breaks down the sum total measured for a pool and assigns estimated fractional effects to each compressed perturbation or target in the pool. The screening platform 210 used SUM-based deconvolution for all target and sample compression experiments described above.

[3] = tested on: REH; assay: Cell viability (CellTiter Glo), compressed perturbation pools with informed pool design, MAX-based deconvolution, REH;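 note: higher DRS means a larger drug effect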
Experimental: as §1, §2, §3, §4, §5

[4] = tested on: MOLT-4; assay: Cell viability (CellTiter Glo), library of cancer drugs, individual or sample compression with randomized (alphabetical) pools, MOLT-4; type: cell-based
Experimental: as §1, §2, §6

[5] = MOLT-4, None (measured individually), informed pool design table
[6] = MOLT-4, Samples, 7 Pick 3 informed perturbation pools
[7] = REH, None (measured individually)
[8] = REH, Samples, 7 Pick 3 randomized (alphabetical) sample pools
[9] = REH, None (measured individually), informed pool design table
[10] = REH, Samples, 7 Pick 3 informed perturbation pools
[11] = MOLT-4, None (measured individually)
[12] = MOLT-4, Samples, 7 Pick 3 randomized (alphabetical) sample pools

SMILES	DRS [1, 5]	DRS from MAX-based deconvolution [1, 6]	DRS [2, 7]	DRS from deconvolution [2, 8]	DRS [3, 9]	DRS from MAX-based deconvolution [3, 10]	DRS [4, 11]	DRS from deconvolution [4, 12]	DRS [1]	DRS from MAX-based deconvolution [1]	DRS [2]	DRS from deconvolution [2]	DRS [3]	DRS from MAX-based deconvolution [3]	DRS [4]	DRS from deconvolution [4]
C[C@]12CC[C@H](O)CC1=CC[C@@H]1[C@@H]2CC[C@]2(C)C(c3cccnc3)=CC[C@@H]12 [Abiraterone]	0.00	0.00	0.27	0.29	0.20	0.00	0.27	0.30								
CC#CC(=O)N1CCC[C@H]1c1nc(-c2ccc(C(=O)Nc3ccccn3)cc2)c2c(N)nccn12 [Acalabrutinib]	0.00	0.00	0.00	0.00	0.00	0.00	0.00	0.00								
CCc1cc2c(cc1N1CCC(N3CCOCC3)CC1)C(C)(C)c1[nH]c3cc(C#N)ccc3c1C2=O [Alectinib]	0.70	1.19	0.20	0.00	0.00	0.00	0.00	0.00								
CC(C)(C#N)c1cc(Cn2cncn2)cc(C(C)(C)C#N)c1 [Anastrozole]	0.56	0.79	0.01	0.21	0.06	0.00	0.01	0.00								
C=C(c1ccc(C(=O)O)cc1)c1cc2c(cc1C)C(C)(C)CCC2(C)C [Bexarotene]	4.84	5.31	1.00	0.00	4.94	5.97	7.00	0.00								
Cn1cnc2c(F)c(Nc3ccc(Br)cc3F)c(C(=O)NOCCO)cc21 [Binimetinib]	0.11	0.00	0.00	0.00	0.37	0.00	0.00	0.00								
CO[C@H]1C(=O)[C@]2(C)[C@@H](OC)C[C@H]3OC[C@@]3(OC(C)=O)[C@H]2[C@H](OC(=O)c2ccccc2)[C@]2(O)C[C@H](OC(=O)[C@H](O)[C@@H](NC(=O)OC(C)(C)C)c3ccccc3)C(C)=C1C2(C)C [Cabazitaxel]	0.01	0.00	29.39	29.52	0.01	0.00	29.89	30.06								
COc1cc2nccc(Oc3ccc(NC(=O)C4(C(=O)Nc5ccc(F)cc5)CC4)cc3)c2cc1OC [Cabozantinib]	0.33	0.00	8.20	9.30	0.53	0.00	2.70	9.82								
CNC(=O)c1ccc(-c2cnc3ncc(Cc4ccc5ncccc5c4)n3n2)cc1F [Capmatinib]	0.40	0.00	0.10	1.13	0.00	0.00	0.10	7.24								
Cc1cc(Nc2ncc(Cl)c(Nc3ccccc3S(=O)(=O)C(C)C)n2)c(OC(C)C)cc1C1CCNCC1 [Ceritinib]	6.77	6.77	0.60	0.60	10.87	12.65	0.00	0.00								
O=C(c1ccc(F)c(F)c1Nc1ccc(I)cc1F)N1CC(O)([C@@H]2CCCCN2)C1 [Cobimetinib]	1.60	1.60	0.00	0.00	0.00	0.00	0.00	0.00								
C[C@H](Nc1ncnc2nc[nH]c12)c1cc2cccc(Cl)c2c(=O)n1-c1ccccc1 [Duvelisib]	5.28	5.28	0.00	0.00	2.58	3.75	0.00	0.00								
CC(C)(O)CNc1nc(Nc2ccnc(C(F)(F)F)c2)nc(-c2cccc(C(F)(F)F)n2)n1 [Enasidenib]									0.00	0.00	0.00	0.00	0.00	0.00	0.00	0.00
COC(=O)N[C@@H](C)CNc1nccc(-c2cn(C(C)C)nc2-c2cc(Cl)cc(NS(C)(=O)=O)c2F)n1 [Encorafenib]	4.30	0.00	1.84	2.10	0.70	0.00	0.24	0.21								
CN1CCN(c2ccc(C(=O)Nc3n[nH]c4ccc(Cc5cc(F)cc(F)c5)cc34)c(NC3CCOCC3)c2)CC1 [Entrectinib]	18.70	21.41	0.00	0.00	16.20	18.94	0.00	0.00								
CNC(=O)c1ccc(N2C(=S)N(c3ccc(C#N)c(C(F)(F)F)c3)C(=O)C2(C)C)cc1F [Enzalutamide]	25.00	28.24	0.00	0.00	27.70	31.61	0.00	0.00								
C=C1C[C@@H]2[C@H](CC[C@]3(C)C(=O)CC[C@@H]23)[C@@]2(C)C=CC(=O)C=C12 [Exemestane]	1.04	0.00	0.00	0.00	1.84	0.00	0.00	0.00								
Cc1cnc(Nc2ccc(OCCN3CCCC3)cc2)nc1Nc1cccc(S(=O)(=O)NC(C)(C)C)c1 [Fedratinib]	2.70	3.88	4.94	5.00	8.20	9.03	4.84	4.67								

— patent US20260378560A1, “APPROACHES TO DESIGNING AND PERFORMING COMPRESSED BIOLOGICAL EXPERIMENTS AND SYSTEMS FOR IMPLEMENTING THE SAME” (EXVIVO LABS INC., priority 2023, published 2026)
